US20100249071A1, “Modulators of S1P and Methods of Making And Using” (Exelixis, Inc., priority 2009, published 2010)
Where two headings read alike, the source gives them in different places.

Assays:
[1] = target: T1, hS1P1R (hEdg1) membrane protein (Homo sapiens, UniProt P21453); assay: hS1P1R GTPγS binding assay (Assay 3a); format: biochemical
T1 construct: purchased Lonza
Protocol: Assay 3a: The hS1P1R GTPγS binding assay was carried out at room temperature in 96 well non-binding surface assay plates. The reaction in each well contained 4 μg hS1P1R (hEdg1) membrane protein (Lonza), 30 μM GDP, 0.1 nM [^35S]GTPγS, 0.25% fatty acid free BSA, and serially diluted hS1P1R agonist compound in 200 μL assay buffer (25 mM Tris-HCl PH 7.9, 100 mM NaCl, 3 mM MgCl2, and 0.2 mM EGTA). After one hour of incubation, 0.9 mg of WGA (Wheat Germ Agglutinin) SPA beads in 50 μL of assay buffer was added to each well. The SPA beads were spun down after an additional one hour incubation. The radioactivity of the bound GTPγS was counted by reading the assay plate using a MicroBeta.

S1P1 = target: T2, S1P1 (Homo sapiens, UniProt P21453); assay: Tango β-arrestin recruitment assay in U2OS cells (Assay 2b); format: cell-based
T2 construct: host or cells: U2OS
T2 sequence (P32121 whole entry): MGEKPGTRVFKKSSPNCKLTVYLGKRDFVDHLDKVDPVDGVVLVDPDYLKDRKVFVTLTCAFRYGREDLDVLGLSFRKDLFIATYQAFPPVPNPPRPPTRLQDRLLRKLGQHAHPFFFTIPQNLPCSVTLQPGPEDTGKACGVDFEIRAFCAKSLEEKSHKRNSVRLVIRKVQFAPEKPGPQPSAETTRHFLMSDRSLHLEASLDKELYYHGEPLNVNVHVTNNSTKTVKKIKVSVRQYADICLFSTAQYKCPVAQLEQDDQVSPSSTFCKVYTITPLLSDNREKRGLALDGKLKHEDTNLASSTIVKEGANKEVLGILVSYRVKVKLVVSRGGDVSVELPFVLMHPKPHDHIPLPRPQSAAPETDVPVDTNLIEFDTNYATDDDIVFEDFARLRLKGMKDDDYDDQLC
T2 sequence (P21453 whole entry): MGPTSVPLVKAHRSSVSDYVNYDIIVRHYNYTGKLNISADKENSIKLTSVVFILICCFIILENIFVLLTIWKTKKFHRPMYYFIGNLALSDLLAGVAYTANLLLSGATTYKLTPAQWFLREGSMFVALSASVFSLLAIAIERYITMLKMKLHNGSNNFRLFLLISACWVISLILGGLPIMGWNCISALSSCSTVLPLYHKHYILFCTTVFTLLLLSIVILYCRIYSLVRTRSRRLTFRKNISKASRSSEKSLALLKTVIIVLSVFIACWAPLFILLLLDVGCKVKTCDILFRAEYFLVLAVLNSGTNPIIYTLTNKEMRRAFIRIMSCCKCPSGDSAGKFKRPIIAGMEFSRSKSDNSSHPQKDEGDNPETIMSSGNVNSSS
Excerpt: (§1) For the Tango™ β-arrestin recruitment assay, the cytoplasmic C-terminus of S1P1 was tethered to the tTA transcriptional activator with a linker that contains a cleavage site for the N1a protease from tobacco etch virus (TEV protease). The C-terminus of the human β-arrestin2 protein was fused to TEV protease. Binding of an agonist recruits the βl -arrestin-TEV fusion protein to the receptor resulting in cleavage of the linker and released of tTA to enter the nucleus and subsequently activated a tTA-dependent luciferase reporter gene.
Assay 2b: Alternatively, U2OS cells expressing the reporter gene and S1P1 (Invitrogen) were added to the wells of a 384-well white opaque bottom assay plate (PerkinElmer) at […]. The cells were serum starved for 48 h in Freestyle medium (Invitrogen). Test compounds were tested at maximum concentrations of 1 μM for the agonist assay. Compounds were diluted in DMSO (10 concentration points, 3-fold each) and added to the assay plate at a 1% final DMSO concentration. The efficacy control was 1 μM S1P (Avanti). For each compound, there were duplicate assay plates and each assay plate had duplicate wells per concentration point. The plate was incubated overnight at 37° C. The GeneBLAzer β-lactamase assay reagent (Invitrogen) was added and the plates were incubated for an additional 2 h at room temperature. Fluorescence was measured using an EnVision plate reader (PerkinElmer, Waltham, Mass.) at an excitation wavelength of 409 nm and emission wavelengths of 460 nm and 530 nm. The emission intensity at each wavelength was background subtracted against wells containing medium only and the F460 nm/F530 nm ratio determined for each concentration of the test compounds. Percent activity was calculated as [(test compound ratio−DMSO ratio)/(positive control ratio−DMSO ratio)*100], where the positive control and DMSO ratios are from cells incubated with the efficacy control 1 μM S1P and 1% DMSO, respectively. The percent activities were plotted against compound concentration to determine EC50 using XLFit (IDBS).

S1P3 = target: T3, S1P3 (Homo sapiens, UniProt Q99500); assay: S1P3 Tango β-arrestin recruitment assay in HEK293 cells (Assay 5); format: cell-based; details: read-out: Assay 5 EC50
T3 construct: host or cells: HEK293 (transient transfection)
T3 sequence (P32121 whole entry): as the sequence (P32121 whole entry) above
T3 sequence (Q99500 whole entry): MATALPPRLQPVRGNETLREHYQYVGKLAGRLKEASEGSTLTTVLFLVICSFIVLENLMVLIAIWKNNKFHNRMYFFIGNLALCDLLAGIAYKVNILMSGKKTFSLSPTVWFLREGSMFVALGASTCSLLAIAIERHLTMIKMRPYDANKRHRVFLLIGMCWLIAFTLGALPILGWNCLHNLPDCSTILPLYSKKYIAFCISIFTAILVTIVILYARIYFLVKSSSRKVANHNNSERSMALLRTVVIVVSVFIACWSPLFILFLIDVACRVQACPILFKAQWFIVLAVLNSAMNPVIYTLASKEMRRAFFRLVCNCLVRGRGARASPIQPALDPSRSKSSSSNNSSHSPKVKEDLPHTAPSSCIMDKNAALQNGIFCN
Excerpt: as §1
Assay 2a: Frozen HEK293 cells transiently transfected with receptor cDNAs for S1P1 (Invitrogen) are thawed and suspended in 10 mL of Pro293a-CDM culture medium (Invitrogen) supplemented with 4 mM L-Glutamine (Invitrogen), 1× Pen/Strep (100 units/mL penicillin and 100 μg/mL streptomycin, Invitrogen) and 0.1% fatty acid free BSA (Sigma-Aldrich). Cells are added to the wells of a 384-well white opaque bottom assay plate (PerkinElmer) at 3,000-6,000 cells per well and the plate is incubated for approximately 4 h in a 37° C. incubator. Test compounds are tested at maximum concentrations of 10 μM for the agonist assays. Compounds are diluted in DMSO (10 concentration points, 3-fold each) and added to the assay plate at a 1% final DMSO concentration. For each compound, there are duplicate assay plates and each assay plate has duplicate wells per concentration point. The plate is incubated at 37° C. for 30 min. The efficacy control is 5 μM S1P (Avanti). Following agonist addition, the assay plates are incubated in a 37° C. incubator for 16-18 h. Luciferase assay reagent is added and luminescence measured in an EnVision plate reader (PerkinElmer). To determine agonist activity, percent activity is calculated as [(test compound−background)/(positive control−background)*100], where background is the luminescence of the DMSO alone control and the positive control is the luminescence from cells incubated with the efficacy control 5 μM S1P. The percent activities are plotted against compound concentration to determine EC50 using XLFit (IDBS).
This assay was conducted using the procedures described in Assay 2a, replacing S1P1 with S1P3.

[2] = target: T4, hS1PR5 (hEdg8) membrane protein (Homo sapiens, UniProt Q9H228); assay: hS1P5R GTPγS binding assay (Assay 4); format: biochemical
T4 construct: expressed in transfected cells; host or cells: CHO
T4 sequence (Q9H228 whole entry): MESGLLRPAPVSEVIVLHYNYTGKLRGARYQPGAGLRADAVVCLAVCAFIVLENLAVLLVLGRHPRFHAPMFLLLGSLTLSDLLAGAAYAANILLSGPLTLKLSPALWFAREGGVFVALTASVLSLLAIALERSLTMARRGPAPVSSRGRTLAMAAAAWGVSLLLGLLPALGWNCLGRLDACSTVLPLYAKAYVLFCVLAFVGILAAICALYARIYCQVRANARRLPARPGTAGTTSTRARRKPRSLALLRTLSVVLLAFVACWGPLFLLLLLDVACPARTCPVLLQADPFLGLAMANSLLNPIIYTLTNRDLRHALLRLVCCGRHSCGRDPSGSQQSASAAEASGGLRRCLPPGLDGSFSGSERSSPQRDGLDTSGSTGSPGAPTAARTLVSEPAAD
Protocol: The hS1PR5 GTPγS binding assay was carried out at room temperature in 96-well non-binding surface assay plates. The reaction in each well contained 5 μg hS1PR5 (hEdg8) membrane protein from CHO cells expressing hS1PR5, 30 μM GDP, 0.1 nM [^35S]GTPγS, 0.25% fatty acid free BSA, and serially-diluted Compound of the Invention in 200 μL assay buffer (25 mM Tris-HCl PH 7.9, 100 mM NaCl, 3 mM MgCl2, and 0.2 mM EGTA). After one hour of incubation, 0.9 mg of WGA (Wheat Germ Agglutinin) SPA beads in 50 μL of assay buffer was added to each well. The SPA beads were spun down after an additional one hour incubation. The radioactivity of the bound GTPγS was counted by reading the assay plate using a MicroBeta.

T1 sequence (P21453 whole entry): as the sequence (P21453 whole entry) above

Q: NC(CO)COc1cc(Cl)c(-c2nnc(-c3cn4ccsc4n3)s2)cc1F (stereo not shown) [Entry 4, 2-amino-3-{[5-chloro-2-fluoro-4-(5-imidazo[2,1-b][1,3]thiazol-6-yl-1,3,4-thiadiazol-2-yl)phenyl]oxy}propan-1-ol] was tested. Which EC50 [1] did it give?
A: > 10000 nM

Q: And the EC50 (S1P1; read-out: Assay 2b EC50)?
A: 50 to 250 nM

Q: Which results are given for N[C@H](CO)COc1cc(Cl)c(-c2nnc(-c3ccc(OC(F)(F)F)cc3)s2)cc1F [Entry 7, (2R)-2-amino-3-{[5-chloro-2-fluoro-4-(5-{4-[(trifluoromethyl)oxy]phenyl}-1,3,4-thiadiazol-2-yl)phenyl]oxy}propan-1-ol]?
A: EC50 [1]: 50 to 250 nM; EC50 (S1P1; read-out: Assay 2b EC50): 250 to 2800 nM

Q: Which results are given for N[C@H](CO)COc1cc(Cl)c(-c2nnc(-c3ccc(OC(F)(F)F)c(Cl)c3)s2)cc1F [Entry 8, (2R)-2-amino-3-{[5-chloro-4-(5-{3-chloro-4-[(trifluoromethyl)oxy]phenyl}-1,3,4-thiadiazol-2-yl)-2-fluorophenyl]oxy}propan-1-ol]?
A: EC50 [1]: 50 to 250 nM; EC50 (S1P1; read-out: Assay 2b EC50): 250 to 2800 nM

Q: Which EC50 [1] does the source give for CC(C)Oc1ccc(-c2nnc(-c3cc(F)c(OCC(N)CO)cc3Cl)s2)nc1Cl (stereo not shown) [Entry 14, 2-amino-3-{[5-chloro-4-(5-{6-chloro-5-[(1-methylethyl)oxy]pyridin-2-yl}-1,3,4-thiadiazol-2-yl)-2-fluorophenyl]oxy}propan-1-ol] here?
A: 10 to 50 nM

Q: What about the EC50 (S1P1; read-out: Assay 2b EC50) of the same molecule?
A: ≤ 10 nM

Q: And the EC50 (S1P3)?
A: ≤ 250 nM

Q: For N[C@H](CO)COc1cc(Cl)c(-c2nnc(-c3cc(Cl)cc(Br)c3)s2)cc1F [Entry 23, (2R)-2-amino-3-({4-[5-(3-bromo-5-chlorophenyl)-1,3,4-thiadiazol-2-yl]-5-chloro-2-fluorophenyl}oxy)propan-1-ol], which EC50 [1] is on record?
A: 250 to 2800 nM

Q: What about the EC50 (S1P1; read-out: Assay 2b EC50) of the same molecule?
A: 250 to 2800 nM

Q: What about the EC50 [2] of the same molecule?
A: 250 to 2800 nM

Q: With CC(C)Oc1c(Cl)cc(-c2nnc(-c3cc(F)c(OC[C@H](N)CO)cc3Cl)s2)cc1Cl [Entry 26, (2R)-2-amino-3-{[5-chloro-4-(5-{3,5-dichloro-4-[(1-methylethyl)oxy]phenyl}-1,3,4-thiadiazol-2-yl)-2-fluorophenyl]oxy}propan-1-ol] as the molecule, how does the EC50 [1] read?
A: 50 to 250 nM

Q: What about the EC50 (S1P1; read-out: Assay 2b EC50) of the same molecule?
A: 250 to 2800 nM

Q: And the EC50 [2]?
A: 250 to 2800 nM

Q: Which EC50 [1] does the source give for CC(C)Oc1cc(Br)cc(-c2nnc(-c3cc(F)c(OC[C@H](N)CO)cc3Cl)s2)c1 [Entry 27, (2R)-2-amino-3-{[4-(5-{3-bromo-5-[(1-methylethyl)oxy]phenyl}-1,3,4-thiadiazol-2-yl)-5-chloro-2-fluorophenyl]oxy}propan-1-ol] here?
A: 50 to 250 nM

Q: What about the EC50 (S1P1; read-out: Assay 2b EC50) of the same molecule?
A: 250 to 2800 nM

Q: Which results are given for N[C@H](CO)COc1cc(Cl)c(-c2nnc(-c3cc(Br)cc(OC(F)(F)F)c3)s2)cc1F [Entry 28, (2R)-2-amino-3-{[4-(5-{3-bromo-5-[(trifluoromethyl)oxy]phenyl}-1,3,4-thiadiazol-2-yl)-5-chloro-2-fluorophenyl]oxy}propan-1-ol]?
A: EC50 [1]: 50 to 250 nM; EC50 (S1P1; read-out: Assay 2b EC50): 50 to 250 nM; EC50 (S1P3): > 10000 nM

Q: Which EC50 [1] does the source give for N[C@H](CO)COc1cc(Cl)c(-c2nnc(-c3cc(Br)cc(Br)c3)s2)cc1F [Entry 30, (2R)-2-amino-3-({5-chloro-4-[5-(3,5-dibromophenyl)-1,3,4-thiadiazol-2-yl]-2-fluorophenyl}oxy)propan-1-ol] here?
A: 250 to 2800 nM

Q: What about the EC50 (S1P1; read-out: Assay 2b EC50) of the same molecule?
A: 250 to 2800 nM

Q: What about the EC50 [2] of the same molecule?
A: 2800 to 10000 nM

Q: CC(C)N(C)c1cc(-c2nnc(-c3cc(F)c(OC[C@@H](N)CO)cc3Cl)s2)cc(Cl)n1 [Entry 31, (2S)-2-amino-3-{[5-chloro-4-(5-{2-chloro-6-[methyl(1-methylethyl)amino]pyridin-4-yl}-1,3,4-thiadiazol-2-yl)-2-fluorophenyl]oxy}propan-1-ol] was tested. Which EC50 [1] did it give?
A: 50 to 250 nM

Q: What about the EC50 (S1P1; read-out: Assay 2b EC50) of the same molecule?
A: ≤ 10 nM

Q: And the EC50 (S1P3)?
A: ≤ 250 nM

Q: Which results are given for CC(C)Oc1ccc(-c2nnc(-c3cc(F)c(OC[C@@H](N)CO)cc3Cl)s2)nc1Cl [Entry 33, (2S)-2-amino-3-{[5-chloro-4-(5-{6-chloro-5-[(1-methylethyl)oxy]pyridin-2-yl}-1,3,4-thiadiazol-2-yl)-2-fluorophenyl]oxy}propan-1-ol]?
A: EC50 [1]: 10 to 50 nM; EC50 (S1P1; read-out: Assay 2b EC50): ≤ 10 nM; EC50 (S1P3): ≤ 250 nM

Q: What does the source list for CC(C)Oc1ccc(-c2nnc(-c3ccc(OC[C@H](N)CO)cc3Cl)s2)cc1Cl [Entry 34, (2R)-2-amino-3-{[3-chloro-4-(5-{3-chloro-4-[(1-methylethyl)oxy]phenyl}-1,3,4-thiadiazol-2-yl)phenyl]oxy}propan-1-ol]?
A: EC50 [1]: 10 to 50 nM; EC50 (S1P1; read-out: Assay 2b EC50): 50 to 250 nM; EC50 (S1P3): > 10000 nM

Q: Which EC50 [1] does the source give for CC(C)Oc1ccc(-c2nnc(-c3cc(F)c(OC[C@H](N)CO)cc3Cl)s2)cc1F [Entry 42, (2R)-2-amino-3-{[5-chloro-2-fluoro-4-(5-{3-fluoro-4-[(1-methylethyl)oxy]phenyl}-1,3,4-thiadiazol-2-yl)phenyl]oxy}propan-1-ol] here?
A: 10 to 50 nM

Q: And the EC50 (S1P1; read-out: Assay 2b EC50)?
A: 50 to 250 nM

Q: And the EC50 [2]?
A: 50 to 250 nM

Q: For CC(C)Nc1cc(-c2nnc(-c3cc(F)c(OC[C@H](N)[C@H](C)O)cc3Cl)s2)ccn1 [Entry 58, (2S,3S)-3-amino-4-{[5-chloro-2-fluoro-4-(5-{2-[(1-methylethyl)amino]pyridin-4-yl}-1,3,4-thiadiazol-2-yl)phenyl]oxy}butan-2-ol], which EC50 [1] is on record?
A: 50 to 250 nM

Q: What about the EC50 (S1P1; read-out: Assay 2b EC50) of the same molecule?
A: 250 to 2800 nM

Q: What about the EC50 [2] of the same molecule?
A: 250 to 2800 nM

Q: How did the EC50 (S1P1; * = rEC50 measured rather than EC50, read-out: Assay 2b rEC50 (relative EC50, cells marked *)) turn out when Cc1cc(-c2nnc(-c3cc(F)c(OC[C@H](N)[C@H](C)O)cc3Cl)s2)cnc1NC(C)C [Entry 66, (2S,3S)-3-amino-4-{[5-chloro-2-fluoro-4-(5-{5-methyl-6-[(1-methylethyl)amino]pyridin-3-yl}-1,3,4-thiadiazol-2-yl)phenyl]oxy}butan-2-ol] was run?
A: 250 to 2800 nM

Q: How did the EC50 (S1P1; read-out: Assay 2b EC50) turn out when N[C@H](CO)COc1cc(Cl)c(-c2nnc(-c3cc(-c4ccccc4)c(C(F)(F)F)s3)s2)cc1F [Entry 84, (2R)-2-amino-3-[(5-chloro-2-fluoro-4-{5-[4-phenyl-5-(trifluoromethyl)-2-thienyl]-1,3,4-thiadiazol-2-yl}phenyl)oxy]propan-1-ol] was run?
A: 250 to 2800 nM

Q: With CCCOc1ccc(-c2nnc(-c3cc(F)c(OC[C@H](N)CO)cc3Cl)s2)cc1 [Entry 91, (2R)-2-amino-3-[(5-chloro-2-fluoro-4-{5-[4-(propyloxy)phenyl]-1,3,4-thiadiaozl-2-yl}phenyl)oxy]propan-1-ol] as the molecule, how does the EC50 [1] read?
A: 50 to 250 nM

Q: What about the EC50 (S1P1; read-out: Assay 2b EC50) of the same molecule?
A: 250 to 2800 nM

Q: And the EC50 [2]?
A: 250 to 2800 nM

Q: How did the EC50 [1] turn out when “(1R,2R)-2-amino-3-{[5-chloro-2-fluoro- 4-(5-{2-methyl-6-[(1- methylethyl)amino]pyridin-4-yl}-1,3,4- thiadiazol-2-yl)phenyl]oxy}-1- methylpropyl dihydrogen phosphate [Entry 100]” was run?
A: ≤ 10 nM

Q: What about the EC50 (S1P1; read-out: Assay 2b EC50) of the same molecule?
A: ≤ 10 nM

Q: And the EC50 [2]?
A: 10 to 50 nM
